From ChEMBL document CHEMBL1201862, “PubChem BioAssay data set” (2004)
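Growth conditions: 96-well plates. Treatment: test compound, 48 hours, 5 concentrations. Analysis: linear interpolation between bracketing concentrations; unreached endpoints set to highest concentration. GI50: concentration for 50% inhibition of growth.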 The source made the active and inactive calls. Rule as the data show it: active = GI50 up to about 1.1 µM and inactive = higher.

Columns and labels:
Experiment in all cases: NCI tumour cell line growth inhibition, 48 h
786-0 = system: 786-0
CCRF-CEM = system: CCRF-CEM
HCT-116 = system: HCT-116
HOP-62 = system: HOP-62
HOP-92 = system: HOP-92
HT-29 = system: HT-29
IGROV-1 = system: IGROV-1
M14 = system: M14
Malme-3M = system: Malme-3M
NCI-H226 = system: NCI-H226
NCI-H522 = system: NCI-H522
OVCAR-8 = system: OVCAR-8
PC-3 = system: PC-3
RPMI-8226 = system: RPMI-8226
SF-268 = system: SF-268
SF-295 = system: SF-295
SK-MEL-2 = system: SK-MEL-2
SK-OV-3 = system: SK-OV-3
SW-620 = system: SW-620
UACC-62 = system: UACC-62

Measured: GI50

CC(=O)O[C@H]1C[C@H]2[C@@H]([C@H](OC(C)=O)C[C@@H]3CC4(CC[C@@]32C)OOC2(CCCCC2)OO4)[C@@H]2CC[C@H]([C@H](C)CCC(=O)O)[C@@]12C
inactive: 786-0 11.3 µM | CCRF-CEM 2.33 µM | HCT-116 5.81 µM | HOP-62 2.45 µM | HOP-92 1.98 µM | HT-29 11.5 µM | IGROV-1 1.87 µM | M14 12 µM | Malme-3M 16.4 µM | NCI-H226 7.29 µM | NCI-H522 3.24 µM | OVCAR-8 4.08 µM | PC-3 7.24 µM | RPMI-8226 3.46 µM | SF-268 6.81 µM | SF-295 5.93 µM | SK-MEL-2 13.1 µM | SK-OV-3 13.7 µM | SW-620 10.2 µM

CCCC[C@H]1CCN2C[C@@H](O)[C@@H](O)[C@H]2[C@@H]1O
inactive: 786-0 > 100 µM | CCRF-CEM > 100 µM | HCT-116 > 100 µM | HOP-92 > 100 µM | HT-29 > 100 µM | IGROV-1 > 100 µM | M14 > 100 µM | Malme-3M > 100 µM | NCI-H226 > 100 µM | NCI-H522 > 100 µM | OVCAR-8 > 100 µM | PC-3 > 100 µM | RPMI-8226 > 100 µM | SF-268 > 100 µM | SF-295 > 100 µM | SK-MEL-2 > 100 µM | SK-OV-3 > 100 µM | SW-620 > 100 µM | UACC-62 > 100 µM

COS(C)(=O)=O [METHANESULFONIC ACID METHYL ESTER]
inactive: 786-0 > 2 µM | CCRF-CEM > 2 µM | HCT-116 > 2 µM | HOP-62 > 2 µM | HOP-92 > 2 µM | HT-29 > 2 µM | IGROV-1 > 2 µM | M14 > 2 µM | Malme-3M > 2 µM | NCI-H226 > 2 µM | NCI-H522 > 2 µM | OVCAR-8 > 2 µM | PC-3 > 2 µM | RPMI-8226 > 2 µM | SF-268 > 2 µM | SK-MEL-2 > 2 µM | SK-OV-3 > 2 µM | SW-620 > 2 µM | UACC-62 > 2 µM

COC(=O)[C@@H](COC(=O)/C=C/c1ccc(OC(C)=O)c(OC(C)=O)c1)NC(=O)/C=C/c1ccc(OC(C)=O)c(OC(C)=O)c1
inactive: 786-0 14.8 µM | CCRF-CEM 9.98 µM | HCT-116 16 µM | HOP-62 25.6 µM | HOP-92 32.7 µM | HT-29 22.4 µM | IGROV-1 32.4 µM | M14 14.6 µM | Malme-3M 6.52 µM | NCI-H226 35.6 µM | NCI-H522 13.2 µM | OVCAR-8 22.5 µM | PC-3 23.1 µM | RPMI-8226 38.2 µM | SF-268 29.9 µM | SK-MEL-2 21.7 µM | SK-OV-3 55.5 µM | SW-620 33.3 µM | UACC-62 19.6 µM

C=C1C[C@@H](O)[C@@H](Br)C(C)(C)[C@@]12C=CC(=O)CC2
inactive: 786-0 > 100 µM | CCRF-CEM > 100 µM | HCT-116 > 86.5 µM | HOP-62 > 100 µM | HOP-92 > 100 µM | HT-29 > 100 µM | IGROV-1 3.58 µM | M14 > 100 µM | Malme-3M > 100 µM | NCI-H522 > 100 µM | OVCAR-8 > 100 µM | PC-3 1.5 µM | RPMI-8226 > 100 µM | SF-268 > 100 µM | SF-295 > 100 µM | SK-MEL-2 > 78.5 µM | SK-OV-3 > 100 µM | SW-620 > 100 µM | UACC-62 > 100 µM

CC(C)=CCC/C(C)=C\CC/C(C)=C/CO
inactive: 786-0 17.4 µM | CCRF-CEM 19.5 µM | HCT-116 19.8 µM | HOP-62 19.6 µM | HOP-92 10.5 µM | HT-29 19.7 µM | IGROV-1 24.4 µM | M14 16.5 µM | Malme-3M 18.2 µM | NCI-H226 36.4 µM | NCI-H522 14.2 µM | OVCAR-8 21.6 µM | PC-3 41.4 µM | RPMI-8226 14.7 µM | SF-268 37.2 µM | SF-295 23.1 µM | SK-MEL-2 16.4 µM | SW-620 85.9 µM

COC(=O)CCC(C)[C@H]1CCC2C3C(C[C@H](OC(C)=O)[C@@]21C)[C@@]1(C)CCC2(C[C@H]1C[C@H]3OC(C)=O)OOC1(CCCCCCC1)OO2 (some centres not stated)
inactive: 786-0 6 µM | CCRF-CEM 4.97 µM | HCT-116 2.74 µM | HOP-62 4.99 µM | HOP-92 7.55 µM | HT-29 9.08 µM | IGROV-1 6.37 µM | M14 27.9 µM | Malme-3M 9.89 µM | NCI-H226 6.79 µM | NCI-H522 10.9 µM | OVCAR-8 4.82 µM | PC-3 3.4 µM | RPMI-8226 1.67 µM | SF-268 6.27 µM | SF-295 6.38 µM | SK-MEL-2 > 100 µM | SK-OV-3 > 100 µM | SW-620 6.3 µM
